Where two headings read alike, the source gives them in different places.
Key:
bone resorption = format: in vivo, rat (Sprague-Dawley female); details: equimolar weekly i.v. doses
Method: Lysylpyridinoline concentration is a measure of the breakdown of bone collagen.
Effect of PGE2 /ABP (IIIa) on bone resorption estimated by urinary excretion of lysypyridinoline in the rat
4 week old Sprague-Dawley female rats were injected intravenously via the tail vein with equimolar weekly doses of ABP (1 mg/kg, n=5), PGE2 /ABP (2.4 mg/kg, n=5), PGE2 (1.4 mg/kg, n=5), or saline (n=4) each. Filtered urine was collected after 12 and 26 days by housing individual rats in metabolic cages and providing them with food and water ad libitum. The overnight collections of urine were centrifuged at 1000×g for 10 minutes to remove any particles and the supernatant fluid was stored at -80° C. until analysis. Lysylpyridinoline (LP) was extracted from duplicate 1 ml aliquots by acid hydrolysis and subsequent low pressure CF-1 chromatography according to the method of Beardsworth et al. (1990). LP was further resolved by high pressure liquid chromatography according to the method of Uebelhart et al. (1990) and quantitated by comparison with an external standard. Urinary creatinine was measured using the picric acid colorimetric assay (Pharmacia Diagnostics Inc., Fairfield, N.J.). Final results were expressed as pmoles LP per μmole creatinine. […]

[1] = tested on: bone loss due to limb immobilization; assay: Effects on bone loss due to limb immobilization in the rat (unilateral sciatic neurectomy, femoral ash weight); format: in vivo, rat (Sprague-Dawley male); details: s.c. on two consecutive days before neurectomy; femoral ash weight difference, ten days post-neurectomy; ABP 0.5 mg/kg, PGE2/ABP 1.2 mg/kg, PGE2 0.7 mg/kg; n=6
Method: ABP, PGE2 /ABP, and PGE2 effects on bone loss due to limb immobilization in the rat
Male Sprague-Dawley rats weighing 270 grams (10-12 wks) were injected subcutaneously on two consecutive days prior to unilateral sciatic neurectomy induced hindlimb immobilization with the following doses: Vehicle (0.0 mg/kg), ABP (0.5mg/kg), PGE2 /ABP (1.2 mg/kg), PGE2 (0.7 mg/kg). Ten days post-neurectomy femora were removed at necropsy, dissected from the musculature, and placed in crucibles for incineration at 700° C. for twenty-four hours. Following incineration, the femoral ash content was weighed to the nearest 0.1 mg and the femoral ash weight differences between the control and immobilized hindlimb were calculated. Data represent mean ±SEM (n=6).

bone formation = details: systemic injection; cited from earlier work
[2] = administered systemically; cited from earlier work
[3] = cited from earlier work
[4] = cited from earlier work; remark: listed apart in the source
[5] = 1, 3 and 6 mg of PGE2/Kg/day, cited from earlier work
[6] = cited from earlier work; remark: listed apart in the source
[7] = long term s.c. administration; cited from earlier work

| SMILES | urinary lysylpyridinoline (LP) level versus vehicle (bone resorption; 12 days) | urinary lysylpyridinoline (LP) level versus vehicle (bone resorption; 26 days) | prevention of bone loss accompanying limb immobilization [1] | bone formation in vivo (bone formation) | half-life [2] | side effects after oral dosing [3] | serum alkaline phosphatase levels ([3]; oral) | serum phosphate levels ([4]; 1 mg of PGE2, rats) | side effects ([4]; s.c., rats, doses of 3 mg/Kg/day or higher) | hard tissue mass ([5]; secondary spongiosa of proximal tibial metaphysis) | number of trabeculae [5] | periosteal and corticoendosteal bone mass ([6]; daily administration) | bone activity ([6]; s.c., 60, 120, and 180 days) | tibial diaphyseal bone mass ([6]; s.c., 60, 120, and 180 days) | soft tissue weight [7] |
| --- | --- | --- | --- | --- | --- | --- | --- | --- | --- | --- | --- | --- | --- | --- | --- |
| NCCCC(O)(P(=O)([O-])[O-])P(=O)(O)O.[Na+].[Na+] [ABP, 4-amino-1-hydroxybutylidene bisphosphonic acid disodium salt] | lower levels of LPs | lower levels of LPs | effective | – | – | – | – | – | – | – | – | – | – | – | – |
| CCCCC[C@H](O)/C=C/[C@H]1[C@H](O)CC(=O)[C@@H]1C/C=C\CCCC(=O)O [PGE2] | – | – | no statistical difference | stimulated | short half-life | loose stools, diarrhea, vomiting, infected sclerae | increased serum alkaline phosphatase levels | significant decreases | diarrhea and flushing of the extremities along with weight loss | increase in hard tissue mass | increase in the number of trabeculae | increases periosteal and corticoendosteal bone mass and sustains the transient increase in bone mass | elevated bone activity | increased tibial diaphyseal bone mass | soft tissue weight increases in adrenal glands, liver, kidneys, and lungs |
